Measurements published in patent US6417174B1, “Inhibitors of β-lactamases and uses therefor” (Northwestern University, priority 1997, dated 2002).
Like-named read-outs stand apart in the source and are kept apart here.

How the values were obtained:
[1] = molecular target: AmpC β-lactamase from E. coli (Escherichia coli, UniProt P00811); experiment: biochemical; assay type: biochemical
[2] = molecular target: T1, TEM-1 β-lactamase from E. coli (Escherichia coli, UniProt P62593); experiment: Inhibition of TEM-1 β-lactamase, spectrophotometric assay (FAP substrate); assay type: biochemical
T1 construct: gift: Natalie Strynadka, University of Alberta

[3] = test system: E. coli RYC1000 harboring plasmid pBGTEM-24 (TEM-24 β-lactamase); experiment: microbe, parasite or virus in culture; assay type: cell-based, Escherichia coli; details: for MIC of ceftazidime plus inhibitor: Table 3A, proportion 4/1, given as CAZ/inhibitor; as to MIC of ceftazidime plus inhibitor: values in µg/ml
Protocol: (§1) After incubation, the growth of the cells was visually inspected. The minimum inhibitory concentration (MIC) is the lowest concentration where there no cell growth was observed.
(§2) The following strains were used: Enterobacter cloacae cell line with derepressed β-lactamase production (Ent-Der), and Escherichia coli RYC1000 (araD139 D lacU169 rpsL D rib7 thiA gyrA recA56) cell lines, harboring the plasmid pBGS19 (with no β-lactamase), or the β-lactamase containing plasmids pBGAmpC (AmpC β-lactamase from E. coli; Eco-AmpC), or pBGAmpC-MHN (AmpC β-lactamase from Enterobacter cloacae; Eco-AmpCEnt). […] TEM-10 and TEM-24 differ from TEM-1 due to the following point substitutions: TEM-10 (R164S, E240K); TEM-24 (L102K, L162S, S235T, A237K). TEM-10 and TEM-24 also differ from TEM-1 in being extended spectrum enzymes (i.e., they react with a greater range of substrates than TEM-1). Also tested were clinical isolates of Pseudomonas aeruginosa. All bacterial strains and plasmids are available from Jesus Blazquez and Fernando Baquero, Servicio de Microbiologia, Hospital Ramon y Cajal, National Institute of Health, Madrid, Spain.
(§3) Several ratios, including 1:1, 2:1, 4:1, and 1:3, of β-lactam antibiotic (amoxicillin (AX) or ceftazidime (CAZ)) to boronic acid compound were used in the assays. Tazobactam (TAZO), a clinically used β-lactamase inibitor, was used as a positive control.

[4] = test system: E. coli RYC1000 harboring plasmid pBGAmpC-MHN (AmpC β-lactamase of Enterobacter cloacae); experiment: microbe, parasite or virus in culture; assay type: cell-based, Escherichia coli; details: for MIC of ceftazidime plus inhibitor: Table 3A, proportion 4/1, given as CAZ/inhibitor; as to MIC of ceftazidime plus inhibitor: values in µg/ml
Protocol: as §1, §2, §3

[5] = test system: E. coli RYC1000 harboring plasmid pBGS19 (no β-lactamase); experiment: microbe, parasite or virus in culture; assay type: cell-based, Escherichia coli; details: for MIC of ceftazidime plus inhibitor: Table 3A, proportion 4/1
Protocol: as §1, §2, §3

[6] = test system: β-lactamase derepressed strain of Enterobacter cloacae (Ent-Der); experiment: microbe, parasite or virus in culture; assay type: cell-based; details: for MIC of ceftazidime plus inhibitor: Table 3A, proportion 4/1, given as CAZ/inhibitor; as to MIC of ceftazidime plus inhibitor: values in µg/ml
Protocol: as §1, §2, §3

[7] = test system: E. coli RYC1000 harboring pBGTEM-10 producing TEM-10 β-lactamase (EC-T10); experiment: microbe, parasite or virus in culture; assay type: cell-based, Escherichia coli; details: EC-T10
Protocol: as §1, §2, §3

[8] = test system: E. coli RYC1000 harboring pBGAmpC-E. coli producing AmpC (ECR-AmpCEc); experiment: microbe, parasite or virus in culture; assay type: cell-based, Escherichia coli; details: ECR-AmpCEc
Protocol: as §1, §2, §3

[9] = test system: E. coli RYC1000 harboring a plasmid coding for a mutant of AmpC from Enterobacter (ECR-AmpCEnM); experiment: microbe, parasite or virus in culture; assay type: cell-based, Escherichia coli
Protocol: as §1, §2, §3

[10] = test system: E. coli RYC1000 harboring pBGTEM-1 producing TEM-1 β-lactamase (EC-T1); experiment: microbe, parasite or virus in culture; assay type: cell-based, Escherichia coli; details: EC-T1
Protocol: as §1, §2, §3

[11] = Table 5, as described in Example 2, read-out: Ki AmpC
[12] = Tables 2A/2B, pH 7.0, 25° C., 100 μM cephalothin, read-out: Ki E. coli AmpC
[13] = Tables 2A/2B, pH 7.0, 25° C., 100 μM FAP, N.I. = no inhibition observed at an inhibitor concentration of 100 μM, read-out: Ki E. coli TEM-1
[14] = pH 7, read-out: Ki E. coli AmpC
[15] = Table 4B, not tested above 128 μg/ml, “256” indicates no inhibition of cell growth

T1 sequence (P62593 24-286 limits assumed): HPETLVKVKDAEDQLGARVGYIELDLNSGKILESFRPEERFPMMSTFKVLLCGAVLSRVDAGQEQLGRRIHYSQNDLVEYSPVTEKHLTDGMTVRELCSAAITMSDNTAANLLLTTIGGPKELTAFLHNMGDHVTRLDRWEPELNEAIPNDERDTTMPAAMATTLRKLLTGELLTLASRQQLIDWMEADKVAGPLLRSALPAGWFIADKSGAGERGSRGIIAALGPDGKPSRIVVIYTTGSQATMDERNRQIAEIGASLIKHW
AmpC β-lactamase from E. coli, sequence (P00811 20-377): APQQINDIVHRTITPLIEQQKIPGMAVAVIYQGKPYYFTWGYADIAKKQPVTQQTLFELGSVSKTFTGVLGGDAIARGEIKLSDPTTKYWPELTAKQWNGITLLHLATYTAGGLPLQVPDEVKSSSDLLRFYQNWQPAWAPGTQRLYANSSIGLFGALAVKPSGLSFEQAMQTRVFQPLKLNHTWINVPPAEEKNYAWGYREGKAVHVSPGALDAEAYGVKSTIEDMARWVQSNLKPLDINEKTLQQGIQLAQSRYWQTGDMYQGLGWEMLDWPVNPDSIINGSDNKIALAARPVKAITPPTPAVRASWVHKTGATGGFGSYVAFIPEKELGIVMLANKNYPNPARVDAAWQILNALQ

O=C(O)/C=C/c1ccc(B(O)O)cc1
Ki [1, 11]: 4.2 ± 1.1 µM

O=Cc1ccccc1B(O)O [2FORMB, 2-formylphenylboronate, reference compound]
Ki [1, 12]: 62 µM
Ki [2, 13]: > 100 µM

Cc1ccc(B(O)O)cc1 [4MEPB, 4-methylphenylboronate, reference compound]
Ki [1, 14]: 5.2 µM
Ki [2, 13]: > 100 µM

OB(O)c1ccc(C(F)(F)F)cc1 [4TFMB]
Ki [1, 14]: 9 µM
Ki [2, 13]: 6.3 µM

OB(O)[C@H]1CCOC1 [(S)-3-tetrahydrofuranylboronic acid]
Ki ([1]; read-out: Ki for AmpC): 15.8 ± 0.8 µM

CC(=O)c1ccc(B(O)O)s1 [5ACTH2B, 5-acetylthiophene-2-boronic acid]
Ki [1, 12]: 1.8 µM
Ki [2]: > 50 µM

Cc1csc(B(O)O)c1
Ki [1, 11]: 0.5 ± 0.05 µM

OB(O)c1ccc(Cl)s1 [5CLTH2B, 5-chlorothiophene-2-boronic acid]
Ki [1, 12]: 1.4 µM
MIC of ceftazidime plus inhibitor [3]: 128/32
MIC of inhibitor used alone without ceftazidime ([3]; Table 3B): 128 µg/mL
MIC of ceftazidime plus inhibitor ([4]; AmpC-MHN): 4/1
MIC of inhibitor used alone without ceftazidime ([4]; Table 3B, AmpC-MHN): 128 µg/mL
MIC of ceftazidime plus inhibitor ([5]; pBGS19): <0.25 µg/mL
MIC of inhibitor used alone without ceftazidime ([5]; Table 3B, pBGS19): 128 µg/mL
MIC of ceftazidime plus inhibitor ([6]; Ent. Der.): 32/8
MIC of inhibitor used alone without ceftazidime ([6]; Table 3B, Ent. Der.): 128 µg/mL
Ki [2]: 17 µM

OB(O)c1ccc2ccccc2c1 [2-naphthylboronic acid]
Ki ([1]; Example 1, read-out: Ki for AmpC): 8.5 ± 1.8 µM

CCCCB(O)O [BUTB, Butylboronic acid]
Ki [1, 12]: > 500 µM
Ki [2]: > 100 µM

C[C@]1(Cn2ccnn2)[C@H](C(=O)O)N2C(=O)C[C@H]2S1(=O)=O [TAZO, Tazobactam, reference compound]
MIC of ceftazidime plus inhibitor [3]: 8/2
MIC of amoxicillin plus inhibitor ([7]; Table 4A, proportion 4/1): 4 µg/mL
MIC of inhibitor used alone without amoxicillin [7, 15]: 64 µg/mL
MIC of amoxicillin plus inhibitor ([8]; Table 4A, proportion 4/1): 32 µg/mL
MIC of inhibitor used alone without amoxicillin [8, 15]: 64 µg/mL
MIC of ceftazidime plus inhibitor ([4]; AmpC-MHN): 4/1
MIC of amoxicillin plus inhibitor ([4]; Table 4A, EC-AmpCEn, proportion 4/1): 16 µg/mL
MIC of inhibitor used alone without amoxicillin ([4]; Table 4B, ECAmpCEn, not tested above 128 μg/ml, “256” indicates no inhibition of cell growth): 64 µg/mL
MIC of amoxicillin plus inhibitor ([9]; Table 4A, ECR-AmpCEnM, proportion 4/1): 16 µg/mL
MIC of inhibitor used alone without amoxicillin ([9]; Table 4B, ECRAmpCEnM, not tested above 128 μg/ml, “256” indicates no inhibition of cell growth): 64 µg/mL
MIC of ceftazidime plus inhibitor ([5]; pBGS19): <0.25 µg/mL
MIC of inhibitor used alone without amoxicillin ([5]; Table 4B, EC, not tested above 128 μg/ml, “256” indicates no inhibition of cell growth): 32 µg/mL
MIC of amoxicillin plus inhibitor ([10]; Table 4A, proportion 4/1): 8 µg/mL
MIC of inhibitor used alone without amoxicillin [10, 15]: 32 µg/mL
MIC of ceftazidime plus inhibitor ([6]; Ent. Der.): 32/8
MIC of amoxicillin plus inhibitor ([6]; Table 4A, Ent-Der., proportion 4/1): 128 µg/mL
MIC of inhibitor used alone without amoxicillin ([6]; Table 4B, Ent-Der., not tested above 128 μg/ml, “256” indicates no inhibition of cell growth): 256 µg/mL

OB(O)c1cccc2ccccc12 [NAPB]
Ki [1, 12]: 10.4 µM
dissociation constant relative to MAPB (AmpC) ([1]; compared with MAPB): two to three-fold worse (higher)
Ki [2, 13]: 34 µM

O=C(O)/C=C/c1cccc(B(O)O)c1
Ki [1, 11]: 5.9 ± 0.3 µM

OB(O)c1ccc2[nH]ccc2c1
Ki [1, 11]: 10.9 ± 0.6 µM

O=Cc1ccsc1B(O)O [3FTH2B, 3-formylthiophene-2-boronic acid]
Ki [1, 12]: 3.5 µM
Ki E. coli TEM-1 ([2]; Tables 2A/2B, pH 7.0, 25° C., 100 μM FAP, N.I. = no inhibition observed at an inhibitor concentration of 100 μM): N.I.

O=Cc1ccc(B(O)O)cc1 [4FORMB, 4-formylphenylboronate, reference compound]
Ki [1, 12]: 2.8 µM
Ki [2, 13]: 35 µM
